In BindingDB's records for doi:10.1016/j.bioorg.2014.08.007 (Central University of Punjab, 2014):

Each molecule was assayed against Xanthine dehydrogenase/oxidase (Bos taurus, UniProt P80457) (assay: XO inhibitory assay). Conditions: pH 7.5; 25 °C.
Chain of Xanthine dehydrogenase/oxidase (P80457 whole entry): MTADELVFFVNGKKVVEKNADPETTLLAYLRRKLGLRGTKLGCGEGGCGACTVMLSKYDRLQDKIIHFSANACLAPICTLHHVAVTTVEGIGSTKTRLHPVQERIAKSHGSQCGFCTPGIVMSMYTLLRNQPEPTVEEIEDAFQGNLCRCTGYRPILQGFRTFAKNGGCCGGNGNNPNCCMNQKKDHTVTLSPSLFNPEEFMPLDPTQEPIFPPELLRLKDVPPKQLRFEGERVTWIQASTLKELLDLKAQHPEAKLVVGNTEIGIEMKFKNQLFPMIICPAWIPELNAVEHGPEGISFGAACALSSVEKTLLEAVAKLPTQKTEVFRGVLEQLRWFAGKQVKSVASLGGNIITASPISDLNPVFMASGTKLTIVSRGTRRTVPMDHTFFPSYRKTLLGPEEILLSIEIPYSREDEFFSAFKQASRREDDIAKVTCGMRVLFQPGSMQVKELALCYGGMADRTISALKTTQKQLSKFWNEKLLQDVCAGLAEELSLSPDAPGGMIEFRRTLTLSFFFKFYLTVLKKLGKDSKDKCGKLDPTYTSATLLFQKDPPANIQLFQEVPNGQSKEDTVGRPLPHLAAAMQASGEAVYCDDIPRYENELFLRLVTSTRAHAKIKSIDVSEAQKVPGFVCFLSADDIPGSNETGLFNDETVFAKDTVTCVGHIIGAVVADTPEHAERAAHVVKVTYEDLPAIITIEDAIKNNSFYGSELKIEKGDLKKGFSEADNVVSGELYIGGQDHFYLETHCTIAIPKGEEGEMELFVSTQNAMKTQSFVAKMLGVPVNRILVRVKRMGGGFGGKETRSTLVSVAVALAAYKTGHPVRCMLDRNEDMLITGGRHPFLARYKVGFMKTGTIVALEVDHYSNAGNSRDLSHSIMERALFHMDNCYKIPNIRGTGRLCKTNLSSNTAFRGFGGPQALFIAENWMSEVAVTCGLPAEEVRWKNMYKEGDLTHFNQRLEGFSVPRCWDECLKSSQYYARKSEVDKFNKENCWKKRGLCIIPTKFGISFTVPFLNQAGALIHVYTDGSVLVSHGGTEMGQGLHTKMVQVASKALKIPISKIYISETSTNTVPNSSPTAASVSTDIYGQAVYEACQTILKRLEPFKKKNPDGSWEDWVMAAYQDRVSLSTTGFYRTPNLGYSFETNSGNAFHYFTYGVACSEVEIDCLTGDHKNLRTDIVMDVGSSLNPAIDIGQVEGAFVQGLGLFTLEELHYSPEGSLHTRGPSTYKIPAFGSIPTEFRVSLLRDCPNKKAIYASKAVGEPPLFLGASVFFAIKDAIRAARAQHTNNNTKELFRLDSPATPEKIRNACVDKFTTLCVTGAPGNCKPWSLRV
Protocol: The reaction mixture contained 1.5 mL of 50 mM potassium phosphate buffer (pH 7.5), 1 mL test sample solutions (5, 10, 25, 50, and 100 µM) was dissolved in DMSO, 0.5 mL of XO enzyme solution (0.2 units/mL of xanthine oxidase in phosphate buffer). The reaction mixture was pre-incubated at room temperature for 15 min, followed by the addition of 1 mL of substrate solution (0.10 mM of xanthine). The mixture was further incubated at room temperature for 30 min and stopped with the addition of 1 mL of 1 M HCl.
Work on Nc1ccccc1-c1cc(-c2ccccc2)n[nH]1 yielded an IC50 of 41.7 µM. With Oc1c(Cl)cc(Cl)cc1C1Nc2ccccc2-c2cc(-c3ccccc3)nn21 (centres undefined) [2,4‐dichloro‐6‐{2‐phenyl‐5H,6H‐pyrazolo[1,5‐ c]quinazolin‐5‐yl}phenol (6g)] the IC50 was 11 µM. For COc1ccc(C2Nc3ccccc3-c3cc(-c4ccccc4)nn32)cc1OC (centres undefined) [5‐(3,4‐dimethoxyphenyl)‐2‐phenyl‐5H,6H‐ pyrazolo[1,5‐c]quinazoline (6e)], the IC50 was 43.6 µM. Molecule O=[N+]([O-])c1cccc(C2Nc3ccccc3-c3cc(-c4ccccc4)nn32)c1 (centres undefined) [5‐(3‐nitrophenyl)‐2‐phenyl‐5H,6H‐pyrazolo[1,5‐ c]quinazoline (6h)] has an IC50 of 20.9 µM.
